Assay results as given in US9902709B2, “Polysubstituted pyridine compound, preparation method, use and pharmaceutical composition” (PEKING UNIVERSITY FOUNDER GROUP CO., LTD., priority 2014, dated 2018).

What was measured:
VEGFR2 = VEGFR2 (Homo sapiens (Human), UniProt P35968); experiment: Inhibitory activity of VEGFR2 kinase (HTRF KinEASE-TK kit); format: biochemical; settings: for IC50: ATP 5 μM, 20 minutes, room temperature; for IC50 value as fold of that of Comparative compound 2 / IC50 value as fold of that of Sorafenib (free base): ratio of IC50
VEGFR2, sequence (P35968 20-1356): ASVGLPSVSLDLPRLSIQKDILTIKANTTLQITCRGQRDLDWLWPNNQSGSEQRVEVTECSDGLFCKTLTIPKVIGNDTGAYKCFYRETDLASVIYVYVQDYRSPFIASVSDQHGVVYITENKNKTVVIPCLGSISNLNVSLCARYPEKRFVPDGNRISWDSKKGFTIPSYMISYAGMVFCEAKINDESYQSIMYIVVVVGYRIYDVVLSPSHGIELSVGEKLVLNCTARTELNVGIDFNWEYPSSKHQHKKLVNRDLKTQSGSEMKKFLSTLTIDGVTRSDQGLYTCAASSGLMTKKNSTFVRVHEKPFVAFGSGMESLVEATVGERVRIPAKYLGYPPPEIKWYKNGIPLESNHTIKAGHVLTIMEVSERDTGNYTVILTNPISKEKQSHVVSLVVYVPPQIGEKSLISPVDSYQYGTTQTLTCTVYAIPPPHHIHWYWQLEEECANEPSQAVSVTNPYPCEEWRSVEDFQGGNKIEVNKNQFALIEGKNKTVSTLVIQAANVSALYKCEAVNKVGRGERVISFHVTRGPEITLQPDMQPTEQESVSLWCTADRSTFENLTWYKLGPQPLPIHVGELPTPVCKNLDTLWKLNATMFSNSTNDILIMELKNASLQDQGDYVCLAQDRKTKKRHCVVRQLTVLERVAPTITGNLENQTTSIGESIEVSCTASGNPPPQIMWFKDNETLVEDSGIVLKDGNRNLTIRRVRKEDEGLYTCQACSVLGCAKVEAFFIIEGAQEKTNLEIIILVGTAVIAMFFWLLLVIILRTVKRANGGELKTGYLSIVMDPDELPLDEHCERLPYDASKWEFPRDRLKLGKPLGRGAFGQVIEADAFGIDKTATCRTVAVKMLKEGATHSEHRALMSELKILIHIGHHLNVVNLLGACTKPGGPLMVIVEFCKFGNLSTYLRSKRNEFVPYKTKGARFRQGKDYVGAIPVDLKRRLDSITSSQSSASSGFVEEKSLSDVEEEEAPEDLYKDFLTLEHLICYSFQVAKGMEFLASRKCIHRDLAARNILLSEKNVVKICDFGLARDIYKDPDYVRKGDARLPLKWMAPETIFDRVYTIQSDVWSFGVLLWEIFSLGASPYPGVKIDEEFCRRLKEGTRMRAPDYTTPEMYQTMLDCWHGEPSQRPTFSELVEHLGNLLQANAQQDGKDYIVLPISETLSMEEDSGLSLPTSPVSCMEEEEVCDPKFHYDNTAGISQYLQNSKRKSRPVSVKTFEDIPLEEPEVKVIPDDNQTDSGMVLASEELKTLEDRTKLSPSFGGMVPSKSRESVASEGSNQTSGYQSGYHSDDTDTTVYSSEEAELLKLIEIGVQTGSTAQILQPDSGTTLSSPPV
Procedure: HTRF®KinEASE™-TK kit (Cat.62TKOPEC, Cisbio);
VEGFR2 (Cat: k2643, Sigma);
2.1 Preparation of VEGFR2 Kinase Reagent
1× kinase buffer: 1 mL 1× kinase buffer contained 200 μL 5× kinase buffer (Invitrogen), 5 μL, 1M MgCl2, 1 μL 1M DTT, 1 μL 1M MnCl2, and 793 μL ddH2O;
5×TK substrate-biotin and ATP working fluid: as the concentrations of TK substrate-biotin and ATP, please refer to Table 1. TK substrate-biotin and ATP were diluted with 1× kinase buffer to 5 folds of the reaction concentrations;
5× kinase working fluid: as the concentration of VEGFR2 kinase, please refer to Table 1. 5× kinase working fluid was prepared with 1× Kinase buffer;
4× Sa-XL665 working fluid: as the concentration of Sa-XL665 (Cisbio) in the reaction, please refer to Table 1. The 4× Sa-XL665 working fluid was prepared with assay buffer (Cisbio);
4×TK Ab-cryptate working fluid: TK Ab-Cryptate (Cisbio) was 100-fold diluted with assay buffer (Cisbio), as working fluid;
Experimental Procedure of HTRF KinEASE TK Kit
After all the reagents were prepared as described above, the reagents except for enzymes were equilibrated to room temperature, then adding samples were performed.
TK substrate-biotin, ATP, VEGFR2 kinase and a compound at a certain concentration were reacted in 1× kinase buffer at room temperature for 20 minutes. […] To all the reaction wells, 5 μl 4× Sa-XL665 working fluid and 5 μl 4×TK Ab-cryptate working fluid were added. After reacting at room temperature for 1 hours, fluorescence signal (excited at 320 nm, emitted at 665 nm, 615 nm) was detected by ENVISION detector (Perkinelmer). Based on the full-active well and the background signal well, the inhibition rate for each well was calculated, and the average value was used for duplicate wells. The half maximal inhibitory concentration (IC50) for each test compound was fitted by professional software Graphpad PRISM 5.0.
2.3 Data Analysis Emission light ratio (ER)=665 nm emission signal/615 nm emission signal Inhibition rate=(ERpositive−ERsample)/(ERpositive−ERnegative)*100%
HTRF KinEASE TK kit was used to determine the IC50 value of a compound for kinase VEGFR2. The final concentration of the compound started from 100 μM, and 4-fold gradient dilution was carried out to provide 10 concentrations. Duplicate wells were used for each concentration. The final concentration of DMSO was controlled to 1% in the reaction system.

[1] = test system: human renal cancer 786-O transplantation; experiment: Effect on tumor weight of human renal cancer 786-O transplantation nude mice (Comparative Experimental Example 1); format: in vivo; settings: QD × 14 days
Description: Comparative Experimental Example 1
The well grown 786-O solid tumor was cut into a mass of an average volume of about 1 mm^3 under aseptic conditions, and was used to inoculate nude mouse at axillary cavity of right forelimb subcutaneously via a trocar. The tumor growth state was observed regularly until the tumor grew into a volume of 250˜550 mm^3.
(§1) Animals with tumors of a too large or too small volume and an irregular shape were discarded. Tumor-bearing mice with a tumor volume of 250˜550 mm^3 in a good state were selected, 48 mice in total, and were divided into 6 groups, which were 1 solvent control group, 3 positive control groups, and 2 test sample groups. Both the positive control group and the test sample group were administered intragastrically once a day; the solvent control group was administered with 12.5% ethanol & 12.5% water solution of polyoxyethylene castor oil once a day; intragastrical volume was 10 mL/kg.
(§2) In the period of administration, tumor diameter was measured twice every week, tumor volume was calculated, and animal body weight was recorded. Animal state was observed when administered, and abnormal state was recorded.
Animal was sacrificed with CO2, and tumor was peeled off, weighed, and photographed. Animal was subjected to gross anatomy, and organs were observed by eyes to find if they were normal or not.
(§3) Observation Indexes: Tumor weight inhibiting rate (IR)=(WC−WT)/WC
Wherein WC and WT represented the average tumor weight of solvent control group and the average tumor weight of drug administration group, respectively.
Experimental data was subjected to calculation and relevant statistic processing by Microsoft Office Excel 2003 software. Unless otherwise specified, data was represented as Mean±Standard Error (Mean±S.E), and t-test is used in the comparison between two groups.

[2] = test system: human colon cancer HCT-116 transplantation; experiment: Effect on tumor weight of human colon cancer HCT-116 transplantation nude mice (Comparative Experiment Example 2); format: in vivo; settings: QD × 17 day
Description: Comparative Experiment Example 2
Under aseptic conditions, the well grown human HCT-116 cell suspension in logarithmic growth phase was used to inoculate nude mouse at axillary cavity of right forelimb subcutaneously via an injector. The tumor growth state was observed regularly until the tumor grew to a volume of 100˜300 mm^3.
as §1, with “48” for “Animals with tumors of a too large or too small volume and an irregular shape were discarded.”, “100˜300” for “250˜550”, “mm^3” for “mm^3 in a good state”, “selected” for “selected, 48 mice in total,”, “and” for “and were”
as §2
Animal was sacrificed with CO2, and tumor mass was peeled off, weighed, and photographed. After photographed, each tumor mass was cut into two parts, wherein one was stored in 4% paraformaldehyde, and the other was packaged into a freezing tube, and frozen in liquid nitrogen. Animal was subjected to gross anatomy, and organs were observed by eyes to find if they were normal or not.
as §3
wherein WC and WT represented the average tumor weight of solvent control group and the average tumor weight of drug administration group, respectively.
Experimental data was subjected to calculation and relevant statistic processing by Microsoft Office Excel 2003 software. Unless otherwise specified, data was represented as Mean±Standard Error (Mean±S.E.), and t-test is used in the comparison between two groups.

Question: With CNc1c(Oc2ccc(NC(=O)Nc3ccc(Cl)c(C(F)(F)F)c3)cc2)ccnc1-c1cnn(C)c1 [Example 7, 1-(4-chloro-3-(trifluoromethyl)phenyl)-3-(4-(3-methylamino-2-(1-methyl-pyrazol-4-yl)-pyridin-4-yl-oxy)phenyl)urea] as the molecule, how does the IC50 (VEGFR2) read?
Answer: Its IC50 is 656 nM.

Question: For Cc1c(Oc2ccc(NC(=O)Nc3ccc(Cl)c(C(F)(F)F)c3)cc2)ccnc1-c1cnn(C)c1 [Example 5, 1-(4-chloro-3-(trifluoromethyl)phenyl)-3-(4-(3-methyl-2-(1-methyl-pyrazol-4-yl)-pyridin-4-yl-oxy)phenyl)urea], which IC50 (VEGFR2) is on record?
Answer: Its IC50 is 317 nM.

Question: Which results are given for CCN(CC)CCNC(=O)c1c(C)[nH]c(/C=C2\C(=O)Nc3ccc(F)cc32)c1C [Sunitinib]?
Answer: Tumor weight Mean ± S.E ([1]; 40 mg/kg po): 0.1825 ± 0.0213 g; Tumor-inhibiting rate ([1]; 40 mg/kg po): 80.49%; Tumor weight Mean ± S.E ([2]; 40 mg/kg Ig): 0.3890 ± 0.0453 g; Tumor-inhibiting rate ([2]; 40 mg/kg Ig): 60.80%

Question: With COc1cc(Oc2ccc(NC(=O)Nc3ccc(Cl)c(C(F)(F)F)c3)cc2)cc(-c2cnn(C)c2)n1 [Comparative example 5, 1-(4-chloro-3-(trifluoromethyl)phenyl)-3-(4-(2-(1-methyl-pyrazol-4-yl)-6-methoxy-pyridin-4-yl-oxy)phenyl)urea, reference compound] as the molecule, how does the IC50 (VEGFR2) read?
Answer: Its IC50 is 2390 nM.

Question: For COc1c(Oc2ccc(NC(=O)Nc3ccc(Cl)c(C(F)(F)F)c3)cc2)ccnc1-c1cnn(C)c1 [Example 8, 1-(4-chloro-3-(trifluoromethyl)phenyl)-3-(4-(3-methoxy-2-(1-methyl-pyrazol-4-yl)-pyridin-4-yl-oxy)phenyl)urea], which IC50 (VEGFR2) is on record?
Answer: The IC50 was 417 nM.

Question: What does the source list for Cn1cc(-c2cc(Oc3ccc(NC(=O)Nc4ccc(Cl)c(C(F)(F)F)c4)cc3)ccn2)cn1 [Comparative example 2, 1-(4-chloro-3-(trifluoromethyl)phenyl)-3-(4-(2-(1-methyl-pyrazol-4-yl)-pyridin-4-yl-oxy)phenyl)urea]?
Answer: IC50 (VEGFR2): 188 nM; Tumor weight Mean ± S.E ([1]; 20 mg/kg po, sorafenib as p-toluenesulfonate, FD-1210005 free form): 0.1892 ± 0.0253 g; Tumor-inhibiting rate ([1]; 20 mg/kg po, sorafenib as p-toluenesulfonate, FD-1210005 free form, listed as Comparative compound 2): 80%; Tumor-inhibiting rate ([1]; 20 mg/kg po, sorafenib as p-toluenesulfonate, FD-1210005 free form, listed as FD-1210005): 79.78%; Tumor weight Mean ± S.E ([1]; 60 mg/kg po, sorafenib as p-toluenesulfonate, FD-1210005 free form): 0.1897 ± 0.0192 g; Tumor-inhibiting rate ([1]; 60 mg/kg po, sorafenib as p-toluenesulfonate, FD-1210005 free form, listed as Comparative compound 2): 80%; Tumor-inhibiting rate ([1]; 60 mg/kg po, sorafenib as p-toluenesulfonate, FD-1210005 free form, listed as FD-1210005): 79.73%; Tumor weight Mean ± S.E ([2]; 20 mg/kg Ig, sorafenib as p-toluenesulfonate, FD-1210005 free form): 0.3283 ± 0.0404 g; Tumor-inhibiting rate ([2]; 20 mg/kg Ig, sorafenib as p-toluenesulfonate, FD-1210005 free form, listed as Comparative compound 2): 67%; Tumor-inhibiting rate ([2]; 20 mg/kg Ig, sorafenib as p-toluenesulfonate, FD-1210005 free form, listed as FD-1210005): 66.91%; Tumor weight Mean ± S.E ([2]; 60 mg/kg Ig, sorafenib as p-toluenesulfonate, FD-1210005 free form): 0.2829 ± 0.0309 g; Tumor-inhibiting rate ([2]; 60 mg/kg Ig, sorafenib as p-toluenesulfonate, FD-1210005 free form, listed as Comparative compound 2): 71%; Tumor-inhibiting rate ([2]; 60 mg/kg Ig, sorafenib as p-toluenesulfonate, FD-1210005 free form, listed as FD-1210005): 71.49%

Question: Which results are given for Cn1cc(-c2nccc(Oc3ccc(NC(=O)Nc4ccc(Cl)c(C(F)(F)F)c4)c(F)c3)c2Cl)cn1 [Example 3, 1-(4-chloro-3-(trifluoromethyl)phenyl)-3-(4-(3-chloro-2-(1-methyl-pyrazol-4-yl)-pyridin-4-yl-oxy)-2-fluorophenyl)urea]?
Answer: IC50 (VEGFR2): 222 nM; inhibitory activity as fold of that of Sorafenib (VEGFR2; VEGFR2 kinase): 1.5 fold; IC50 value as fold of that of Comparative compound 2 (VEGFR2; VEGFR2 kinase): comparable; IC50 value as fold of that of Sorafenib (free base) (VEGFR2; VEGFR2 kinase): 2.5 fold

Question: Which results are given for Cn1cc(-c2nccc(Oc3ccc(NC(=O)Nc4ccc(Cl)c(C(F)(F)F)c4)cc3)c2C#N)cn1 [Example 4, 1-(4-chloro-3-(trifluoromethyl)phenyl)-3-(4-(3-cyano-2-(1-methyl-pyrazol-4-yl)-pyridin-4-yl-oxy)phenyl)urea]?
Answer: IC50 (VEGFR2): 68.5 nM; inhibitory activity as fold of that of Comparative compound 2 (VEGFR2; VEGFR2 kinase): 2.7 fold; inhibitory activity as fold of that of Sorafenib (VEGFR2; VEGFR2 kinase): 1.3 fold; IC50 value as fold of that of Comparative compound 2 (VEGFR2; VEGFR2 kinase): 0.36 fold; IC50 value as fold of that of Sorafenib (free base) (VEGFR2; VEGFR2 kinase): 0.75 fold

Question: Which IC50 (VEGFR2) does the source give for Cn1cc(-c2nccc(Oc3ccc(NC(=O)Nc4ccc(Cl)c(C(F)(F)F)c4)cc3)c2N)cn1 [Example 6, 1-(4-chloro-3-(trifluoromethyl)phenyl)-3-(4-(3-amino-2-(1-methyl-pyrazol-4-yl)-pyridin-4-yl-oxy)phenyl)urea] here?
Answer: Its IC50 is 215 nM.

Question: With Cn1cc(-c2cc(Oc3ccc(NC(=O)Nc4ccc(Cl)c(C(F)(F)F)c4)cc3)c(F)cn2)cn1 [Comparative example 3, 1-(4-chloro-3-(trifluoromethyl)phenyl)-3-(4-(2-(1-methyl-pyrazol-4-yl)-5-fluoro-pyridin-4-yl-oxy)phenyl)urea, reference compound] as the molecule, how does the IC50 (VEGFR2) read?
Answer: The IC50 was 437 nM.

Question: With Cn1cc(-c2cc(Oc3ccc(NC(=O)Nc4ccc(Cl)c(C(F)(F)F)c4)cc3)c(Cl)cn2)cn1 [Comparative example 4, 1-(4-chloro-3-(trifluoromethyl)phenyl)-3-(4-(2-(1-methyl-pyrazol-4-yl)-5-chloro-pyridin-4-yl-oxy)phenyl)urea, reference compound] as the molecule, how does the IC50 (VEGFR2) read?
Answer: Its IC50 is 20500 nM.
